Test results published in patent US5612476A, “Anti-endotoxin compounds” (priority 1995, dated 1997).
Where “and” joins values, the source holds several entries; their conditions need not be identical. Identical values can stand only once.

What was measured:
[1] = system: LPS-induced TNF production; parameters: species or system C57BL/6 mice; conditions: mouse, iv
[2] = system: LPS-induced TNF production; experiment: In vivo inhibition of LPS-induced TNF production in guinea pigs; conditions: optimum ED50's
guinea pig macrophages = experiment: cells; assay type: cell-based, Hartley-White guinea pig; conditions: for inhibition of LPS-induced TNF production: guinea pig macrophages, LPS 10 ng/ml, in words
mouse macrophages = experiment: cells; assay type: cell-based, C57BL/6 mouse; conditions: for inhibition of LPS-induced TNF production: mouse macrophages, LPS 10 ng/ml, in words
HIV LTR = experiment: Suppression of LPS-stimulated HIV LTR activation in stably transfected U938 cell line (HIV-1 LTR-CAT); conditions: Human immunodeficiency virus 1, 24 h, read-out: IC50 for suppression of LPS-stimulated HIV LTR activation
Experimental: Experiments were carried out using one such stably-transfected cell line, i.e., the U938 cell line of Latham et al. (Cell. Immunol. 129:513, 1990). Cells were cultured as described in Latham et al. (1990, supra), and 10^6 cells were treated with a lipid A analog (at a concentration of between 0.0 and 1.0 μM). Thirty minutes after addition of the analog, cells were treated with phorbol myristate acetate (at a concentration of 0.33 ng/ml; described above) and E. coli 0111:B4 LPS (at a concentration of 33 ng/ml; described above). Cells were cultured for an additional 24 hours, harvested, and assayed for CAT activity as described above.

human monocytes = experiment: In vitro inhibition of LPS-induced TNF production in human monocytes (ELISA); assay type: cell-based; conditions: Monocyte, E. coli 0111:B4 LPS 10 ng/ml, 3 h, read-out: ED50 for inhibition of LPS-induced production of TNF
Experimental: Both bacterial LPS and bacterial lipid A elicit production of tumor necrosis factor (TNF) and IL-1β in cultured human monocytes (J. Immunol. 139:429, 1987).
Monocytes were isolated from human blood by Percoll density gradient centrifugation, plated at approximately 1×10^6 cells/well on a 48-well plate in RPMI 1640 medium (GIBCO, Grand Island, N.Y.) containing 10% human serum (Sigma Chemical Co., St. Louis, Mo.) and incubated for two to three hours. Bacterial LPS (i.e., from E. coli 0111:B4; Sigma Chemicals, St. Louis, Mo.) at 10 ng/ml or lipid A (Daiichi Chemicals, Tokyo, Japan) at 1.0 ng/ml in RPMI 1640 medium were combined with 0.45 ml of RPMI 1640 medium containing 1% human serum and added to the cultured monocytes. In experiments involving a lipid A analog, the analog was added immediately before addition of LPS or lipid A in varying concentrations (e.g., between 0 and 100 μM in a 50 μl aliquot). Following a three-hour incubation period, a 0.1 ml aliquot of the culture supernatant was assayed for the presence of TNF and IL-1β. TNF and IL-1β were assayed using the ELISA assay of R & D Systems (Minneapolis, Minn.) and the instructions of the manufacturer, however, any other standard ELISA kits may be utilized, for example, the kit available from Genzyme, Cambridge, Mass. Experiments were performed in triplicate.

Structure (SMILES)	inhibition of TNF production in vivo [1]	inhibition of LPS-induced TNF production (guinea pig macrophages)	inhibition of LPS-induced TNF production (mouse macrophages)	further results
CCCCCC/C=C\CCCC(=O)O[C@H](CCCCCCC)CC(=O)O[C@@H]1[C@@H](NC(=O)CC(=O)CCCCCCCCCCC)[C@H](OC[C@H]2O[C@H](OP(=O)(O)O)[C@H](NC(=O)CC(=O)CCCCCCCCCCC)[C@@H](OC(=O)C[C@H](O)CCCCCCC)[C@@H]2O)O[C@H](CO)[C@H]1OP(=O)(O)O [Analog B214-31]	inhibited TNF production	–	–	–
CCCCCC/C=C\CCCC(=O)O[C@H](CCCCCCC)CC(=O)O[C@@H]1[C@@H](NC(=O)CC(=O)CCCCCCCCCCC)[C@H](OC[C@H]2O[C@H](OP(=O)(O)O)[C@H](NC(=O)CC(=O)CCCCCCCCCCC)[C@@H](OC(=O)C[C@H](O)CCCCCCC)[C@@H]2O)O[C@H](CO)[C@H]1OP(=O)(O)O [Analog B214-32]	inhibited TNF production	inhibited LPS-induced TNF production	inhibited LPS-induced TNF production	optimum ED50 for inhibition of LPS-induced TNF production in vivo [2]: 7.5 μg/guinea pig and 5 μg/guinea pig
CCCCCC/C=C\CCCC(=O)O[C@H](CCCCCCC)CC(=O)O[C@@H]1[C@@H](NC(=O)CC(=O)CCCCCCCCCCC)[C@H](OC[C@H]2O[C@H](OP(=O)(O)O)[C@H](NC(=O)CC(=O)CCCCCCCCCCC)[C@@H](OC(=O)C[C@H](O)CCCCCCC)[C@@H]2O)O[C@H](CO)[C@H]1OP(=O)(O)O [Analog B214-33]	inhibited TNF production	–	–	–
CCCCCC/C=C\CCCC(=O)O[C@H](CCCCCCC)CC(=O)O[C@@H]1[C@@H](NC(=O)CC(=O)CCCCCCCCCCC)[C@H](OC[C@H]2O[C@H](OP(=O)(O)O)[C@H](NC(=O)C[C@H](O)CCCCCCCCCCC)[C@@H](OC(=O)C[C@H](O)CCCCCCC)[C@@H]2O)O[C@H](CO)[C@H]1OP(=O)(O)O [Analog B218-32]	inhibited TNF production	–	–	–
CCCCCC/C=C\CCCC(=O)O[C@H](CCCCCCC)CC(=O)O[C@@H]1[C@@H](NC(=O)/C=C/CCCCCCCCCCC)[C@H](OC[C@H]2O[C@H](OP(=O)(O)O)[C@H](NC(=O)/C=C/CCCCCCCCCCC)[C@@H](OC(=O)C[C@H](O)CCCCCCC)[C@@H]2O)O[C@H](CO)[C@H]1OP(=O)(O)O [Analog B286-32]	inhibited TNF production	–	–	–
CCCCCC/C=C\CCCCO[C@H](CCCCCCC)CC(=O)O[C@@H]1[C@@H](NC(=O)CC(=O)CCCCCCCCCCC)[C@H](OC[C@H]2O[C@H](OP(=O)(O)O)[C@H](NC(=O)CC(=O)CCCCCCCCCCC)[C@@H](OC(=O)C[C@H](O)CCCCCCC)[C@@H]2O)O[C@H](CO)[C@H]1OP(=O)(O)O [Analog B294-32]	inhibited TNF production	–	–	–
CCCCCC/C=C\CCCC(=O)O[C@H](CCCCCCC)CC(=O)O[C@@H]1[C@@H](NC(=O)CC(=O)CCCCCCCCCCC)[C@H](OC[C@H]2O[C@H](OP(=O)(O)O)[C@H](NC(=O)/C=C/CCCCCCCCCCC)[C@@H](OC(=O)C[C@H](O)CCCCCCC)[C@@H]2O)O[C@H](CO)[C@H]1OP(=O)(O)O [Analog B313-32]	inhibited TNF production	–	–	–
CCCCCC/C=C\CCNC(=O)O[C@H](CCCCCCC)CC(=O)O[C@@H]1[C@@H](NC(=O)CC(=O)CCCCCCCCCCC)[C@H](OC[C@H]2O[C@H](OP(=O)(O)O)[C@H](NC(=O)CC(=O)CCCCCCCCCCC)[C@@H](OC(=O)C[C@H](O)CCCCCCC)[C@@H]2O)O[C@H](CO)[C@H]1OP(=O)(O)O [Analog B379-32]	inhibited TNF production	–	–	–
CCCCCCC/C=C/C(=O)O[C@@H]1[C@@H](NC(=O)CC(=O)CCCCCCCCCCC)[C@H](OC[C@H]2O[C@H](OP(=O)(O)O)[C@H](NC(=O)CC(=O)CCCCCCCCCCC)[C@@H](OC(=O)C[C@H](O)CCCCCCC)[C@@H]2O)O[C@H](CO)[C@H]1OP(=O)(O)O [Analog B400-32]	inhibited TNF production	–	–	IC50 (HIV LTR): 15 to 260 nM
CCCCCC/C=C\CCCC(=O)O[C@H](CCCCCCC)CC(=O)O[C@@H]1[C@@H](NC(=O)CC(=O)CCCCCCCCCCC)[C@H](OC[C@H]2O[C@H](OP(=O)(O)O)[C@H](NC(=O)CC(=O)CCCCCCCCCCC)[C@@H](OCC[C@H](O)CCCCCCC)[C@@H]2O)O[C@H](CO)[C@H]1OP(=O)(O)O [Analog B410-32]	inhibited TNF production	inhibited LPS-induced TNF production	inhibited LPS-induced TNF production	–
CCCCCC/C=C\CCCC(=O)O[C@H](CCCCCCC)CC(=O)O[C@@H]1[C@@H](NC(=O)CS(=O)(=O)CCCCCCCCCCC)[C@H](OC[C@H]2O[C@H](OP(=O)(O)O)[C@H](NC(=O)CS(=O)(=O)CCCCCCCCCCC)[C@@H](OC(=O)C[C@H](O)CCCCCCC)[C@@H]2O)O[C@H](CO)[C@H]1OP(=O)(O)O [Analog B425-32]	inhibited TNF production	–	–	–
CCCCCC/C=C\CCCC(=O)O[C@H](CCCCCCC)CC(=O)O[C@@H]1[C@@H](NC(=O)CC(=O)CCCCCCCCCCC)[C@@H](OC[C@H]2O[C@H](OP(=O)(O)O)[C@H](NC(=O)CC(=O)CCCCCCCCCCC)[C@@H](OC(=O)C[C@H](O)CCCCCCC)[C@@H]2O)O[C@H](CO)[C@H]1OP(=O)(O)O [Analog B426-32]	inhibited TNF production	–	–	–
CCCCCC/C=C\CCCC(=O)O[C@H](CCCCCCC)CCO[C@@H]1[C@@H](NC(=O)CC(=O)CCCCCCCCCCC)[C@H](OC[C@H]2O[C@H](OP(=O)(O)O)[C@H](NC(=O)CC(=O)CCCCCCCCCCC)[C@@H](OCC[C@H](O)CCCCCCC)[C@@H]2O)O[C@H](CO)[C@H]1OP(=O)(O)O [Analog B427-32]	–	inhibited LPS-induced TNF production	inhibited LPS-induced TNF production	IC50 (HIV LTR): 15 to 260 nM
CCCCCC/C=C\CCCC(=O)O[C@H](CCCCCCC)CCO[C@@H]1[C@@H](NC(=O)C[S+]([O-])CCCCCCCCCCC)[C@H](OC[C@H]2O[C@H](OP(=O)(O)O)[C@H](NC(=O)C[S+]([O-])CCCCCCCCCCC)[C@@H](OCC[C@H](O)CCCCCCC)[C@@H]2O)O[C@H](CO)[C@H]1OP(=O)(O)O (stereo partly shown) [Analog B459-32]	–	inhibited LPS-induced TNF production	inhibited LPS-induced TNF production	–
CCCCCC/C=C\CCCC(=O)O[C@H](CCCCCCCC)CCO[C@@H]1[C@@H](NC(=O)CC(=O)CCCCCCCCCCC)[C@H](OC[C@H]2O[C@H](OP(=O)(O)O)[C@H](NC(=O)CC(=O)CCCCCCCCCCC)[C@@H](OCC[C@H](O)CCCCCCCC)[C@@H]2O)O[C@H](COC)[C@H]1OP(=O)(O)O [Analog B464-32]	–	inhibited LPS-induced TNF production	inhibited LPS-induced TNF production	–
CCCCCC/C=C\CCCC(=O)O[C@H](CCCCCCC)CCO[C@@H]1[C@@H](NC(=O)CC(=O)CCCCCCCCCCC)[C@H](OC[C@H]2O[C@H](OP(=O)(O)O)[C@H](NC(=O)CC(=O)CCCCCCCCCCC)[C@@H](OCC[C@H](O)CCCCCCC)[C@@H]2O)O[C@H](COC)[C@H]1OP(=O)(O)O [Analog B531-35]	–	–	–	IC50 (guinea pig macrophages; Cavia porcellus, Macrophage, 3 h, read-out: ED50 for inhibition of LPS-induced TNF production): 0.66 nM; IC50 (human monocytes): ~0.02 nM; IC50 (mouse macrophages; Mus musculus, Macrophage, 3 h, read-out: ED50 for inhibition of LPS-induced TNF production): 2.26 nM; ED50 for inhibition of TNF production in vivo [1]: 16.2 μg/mouse
CCCCCC/C=C\CCCC(=O)O[C@H](CCCCCCC)CCO[C@@H]1[C@@H](NC(=O)CC(=O)CCCCCCCCCCC)[C@H](OC[C@H]2O[C@H](OP(=O)(O)O)[C@H](NC(=O)CC(=O)CCCCCCCCCCC)[C@@H](OCC[C@H](O)CCCCCCC)[C@@H]2OC(C)=O)O[C@H](COC)[C@H]1OP(=O)(O)O [Analog B718-35]	–	inhibited LPS-induced TNF production	inhibited LPS-induced TNF production	–
